What was measured:
Format in all cases: biochemical
PI3Kγ = PI3Kγ (Homo sapiens (Human), UniProt P48736); test: TR-FRET enzymatic assay of PI3K isoforms (PI3Kγ); conditions: TR-FRET, 2×Km ATP, 2 μM PIP2, PI3Kγ at 2 nM, incubated for 30 minutes at 25° C.; read-out: γ IC50
Experimental: (§1) The compounds of formula (I) were characterized for their enzymatic activity against the PI3K isoforms. Certain compounds of the present application, including certain compounds of formula (II) and (III) were also characterized for their enzymatic activity against PI3K isoforms. The activities were measured using a time-resolved fluorescence resonance energy transfer (TR-FRET) assay.

PI3Kβ = PI3Kβ (Homo sapiens (Human), UniProt P42338); test: TR-FRET enzymatic assay of PI3K isoforms (PI3Kβ); conditions: TR-FRET, 2×Km ATP, 2 μM PIP2, incubated for 30 minutes at 25° C.; read-out: β IC50
PI3Kβ, sequence (P42338 whole entry, canonical isoform): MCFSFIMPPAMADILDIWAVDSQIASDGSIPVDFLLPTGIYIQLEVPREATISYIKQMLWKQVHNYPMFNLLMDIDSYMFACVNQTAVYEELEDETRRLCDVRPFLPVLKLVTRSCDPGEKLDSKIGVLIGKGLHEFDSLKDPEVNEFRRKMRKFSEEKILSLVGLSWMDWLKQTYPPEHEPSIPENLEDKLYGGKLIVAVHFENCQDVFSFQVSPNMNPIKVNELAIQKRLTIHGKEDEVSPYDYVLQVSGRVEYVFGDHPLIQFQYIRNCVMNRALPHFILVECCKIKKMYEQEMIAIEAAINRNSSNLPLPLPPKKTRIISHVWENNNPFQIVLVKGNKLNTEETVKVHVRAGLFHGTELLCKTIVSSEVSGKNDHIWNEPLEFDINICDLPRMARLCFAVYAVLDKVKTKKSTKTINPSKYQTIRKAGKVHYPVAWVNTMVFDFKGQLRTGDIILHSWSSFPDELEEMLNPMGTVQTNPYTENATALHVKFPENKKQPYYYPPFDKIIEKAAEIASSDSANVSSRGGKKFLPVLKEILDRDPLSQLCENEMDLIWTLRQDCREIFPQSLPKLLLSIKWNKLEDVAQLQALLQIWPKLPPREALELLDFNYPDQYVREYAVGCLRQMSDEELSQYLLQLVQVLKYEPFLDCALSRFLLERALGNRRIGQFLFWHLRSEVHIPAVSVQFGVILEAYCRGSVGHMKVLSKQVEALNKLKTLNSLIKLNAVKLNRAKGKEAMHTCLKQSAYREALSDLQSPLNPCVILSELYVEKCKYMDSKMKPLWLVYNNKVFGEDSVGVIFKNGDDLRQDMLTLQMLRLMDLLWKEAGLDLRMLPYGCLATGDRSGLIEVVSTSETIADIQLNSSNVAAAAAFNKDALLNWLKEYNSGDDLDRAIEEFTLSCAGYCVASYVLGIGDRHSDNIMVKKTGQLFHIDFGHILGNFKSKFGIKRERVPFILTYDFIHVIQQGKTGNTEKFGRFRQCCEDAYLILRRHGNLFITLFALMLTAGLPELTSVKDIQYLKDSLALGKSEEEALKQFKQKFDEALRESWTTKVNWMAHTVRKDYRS
PI3Kβ, sequence (P27986 whole entry partner, canonical isoform): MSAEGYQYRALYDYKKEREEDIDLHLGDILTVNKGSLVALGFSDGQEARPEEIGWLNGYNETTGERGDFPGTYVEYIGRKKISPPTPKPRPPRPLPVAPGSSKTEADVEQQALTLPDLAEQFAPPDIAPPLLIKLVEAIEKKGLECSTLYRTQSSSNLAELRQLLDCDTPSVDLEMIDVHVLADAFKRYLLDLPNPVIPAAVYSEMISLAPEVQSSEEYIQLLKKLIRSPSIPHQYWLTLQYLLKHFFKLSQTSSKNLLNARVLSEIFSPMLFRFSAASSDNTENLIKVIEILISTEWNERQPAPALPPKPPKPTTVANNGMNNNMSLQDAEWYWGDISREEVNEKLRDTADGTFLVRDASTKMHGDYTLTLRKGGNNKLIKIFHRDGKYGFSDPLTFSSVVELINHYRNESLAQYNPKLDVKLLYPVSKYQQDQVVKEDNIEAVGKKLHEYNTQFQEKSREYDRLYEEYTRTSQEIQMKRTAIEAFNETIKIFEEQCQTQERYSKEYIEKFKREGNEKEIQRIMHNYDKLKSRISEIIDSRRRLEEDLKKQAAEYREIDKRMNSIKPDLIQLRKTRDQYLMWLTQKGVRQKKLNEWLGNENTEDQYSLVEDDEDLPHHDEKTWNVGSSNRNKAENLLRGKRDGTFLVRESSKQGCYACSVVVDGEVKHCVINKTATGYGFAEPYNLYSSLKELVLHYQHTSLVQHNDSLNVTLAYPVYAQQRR
Experimental: as §1

PI3Kδ = PI3Kδ (Homo sapiens (Human), UniProt O00329); test: TR-FRET enzymatic assay of PI3K isoforms (PI3Kδ); conditions: 2×Km ATP, 2 μM PIP2, incubated for 30 minutes at 25° C., read-out: δ IC50
PI3Kδ, sequence (O00329 whole entry, canonical isoform): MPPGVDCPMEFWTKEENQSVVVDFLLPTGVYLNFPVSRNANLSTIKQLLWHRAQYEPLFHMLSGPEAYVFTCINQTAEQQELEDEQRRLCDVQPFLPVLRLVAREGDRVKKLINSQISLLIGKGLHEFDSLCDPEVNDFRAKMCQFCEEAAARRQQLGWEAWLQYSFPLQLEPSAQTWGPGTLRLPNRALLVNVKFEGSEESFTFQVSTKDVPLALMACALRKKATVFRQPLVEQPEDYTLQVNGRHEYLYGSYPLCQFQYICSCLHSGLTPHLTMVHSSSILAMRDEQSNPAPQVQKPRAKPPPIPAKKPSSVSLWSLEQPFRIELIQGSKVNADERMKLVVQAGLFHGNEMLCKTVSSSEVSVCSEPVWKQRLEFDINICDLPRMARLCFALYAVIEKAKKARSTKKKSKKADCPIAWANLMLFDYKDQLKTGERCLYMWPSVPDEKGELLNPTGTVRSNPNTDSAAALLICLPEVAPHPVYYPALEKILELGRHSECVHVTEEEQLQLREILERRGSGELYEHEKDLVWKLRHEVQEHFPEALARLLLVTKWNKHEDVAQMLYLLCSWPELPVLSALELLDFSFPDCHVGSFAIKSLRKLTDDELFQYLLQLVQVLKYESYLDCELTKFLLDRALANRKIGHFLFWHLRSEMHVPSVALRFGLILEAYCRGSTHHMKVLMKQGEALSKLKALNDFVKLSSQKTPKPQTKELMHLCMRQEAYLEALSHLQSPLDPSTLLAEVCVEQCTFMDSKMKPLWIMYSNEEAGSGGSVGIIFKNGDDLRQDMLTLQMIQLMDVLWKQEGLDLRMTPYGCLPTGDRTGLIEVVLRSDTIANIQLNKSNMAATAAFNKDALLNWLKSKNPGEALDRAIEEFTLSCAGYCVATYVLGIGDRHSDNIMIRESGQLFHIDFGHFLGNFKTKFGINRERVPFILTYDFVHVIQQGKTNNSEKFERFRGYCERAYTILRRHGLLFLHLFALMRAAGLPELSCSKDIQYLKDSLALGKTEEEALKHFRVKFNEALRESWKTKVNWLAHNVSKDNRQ
PI3Kδ, sequence (P27986 whole entry partner, canonical isoform): as the sequence (P27986 whole entry partner, canonical isoform) above
Experimental: as §1

PI3Kγ, sequence (P48736 whole entry, canonical isoform): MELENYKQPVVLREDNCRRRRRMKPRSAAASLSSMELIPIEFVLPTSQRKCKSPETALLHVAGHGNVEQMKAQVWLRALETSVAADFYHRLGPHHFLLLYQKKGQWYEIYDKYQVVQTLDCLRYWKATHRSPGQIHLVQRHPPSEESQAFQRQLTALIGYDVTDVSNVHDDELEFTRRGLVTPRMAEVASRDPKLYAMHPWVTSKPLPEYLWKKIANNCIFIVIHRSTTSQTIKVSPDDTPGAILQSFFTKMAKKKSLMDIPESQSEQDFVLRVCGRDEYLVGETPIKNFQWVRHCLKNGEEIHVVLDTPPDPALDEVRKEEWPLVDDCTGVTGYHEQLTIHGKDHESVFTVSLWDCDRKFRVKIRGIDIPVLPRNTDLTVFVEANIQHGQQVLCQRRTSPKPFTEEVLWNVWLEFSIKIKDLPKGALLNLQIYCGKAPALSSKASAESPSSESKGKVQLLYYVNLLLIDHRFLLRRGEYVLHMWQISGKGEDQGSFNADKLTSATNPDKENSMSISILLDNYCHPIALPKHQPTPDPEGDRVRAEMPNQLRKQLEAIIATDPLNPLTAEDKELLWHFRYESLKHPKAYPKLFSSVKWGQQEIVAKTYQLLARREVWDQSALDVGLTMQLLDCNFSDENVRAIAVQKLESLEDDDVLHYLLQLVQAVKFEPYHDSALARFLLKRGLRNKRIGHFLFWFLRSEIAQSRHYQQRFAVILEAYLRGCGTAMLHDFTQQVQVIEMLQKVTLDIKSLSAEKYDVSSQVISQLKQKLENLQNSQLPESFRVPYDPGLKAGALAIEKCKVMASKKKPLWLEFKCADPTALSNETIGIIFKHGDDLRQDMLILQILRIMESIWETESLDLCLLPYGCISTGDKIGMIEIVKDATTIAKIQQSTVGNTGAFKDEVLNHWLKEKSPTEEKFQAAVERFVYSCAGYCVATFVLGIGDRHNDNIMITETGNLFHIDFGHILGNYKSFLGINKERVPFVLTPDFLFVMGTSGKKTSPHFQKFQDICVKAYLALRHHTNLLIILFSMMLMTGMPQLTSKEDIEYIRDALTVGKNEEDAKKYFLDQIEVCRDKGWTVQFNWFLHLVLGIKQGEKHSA
PI3Kγ, sequence (Q8WYR1 whole entry partner, canonical isoform): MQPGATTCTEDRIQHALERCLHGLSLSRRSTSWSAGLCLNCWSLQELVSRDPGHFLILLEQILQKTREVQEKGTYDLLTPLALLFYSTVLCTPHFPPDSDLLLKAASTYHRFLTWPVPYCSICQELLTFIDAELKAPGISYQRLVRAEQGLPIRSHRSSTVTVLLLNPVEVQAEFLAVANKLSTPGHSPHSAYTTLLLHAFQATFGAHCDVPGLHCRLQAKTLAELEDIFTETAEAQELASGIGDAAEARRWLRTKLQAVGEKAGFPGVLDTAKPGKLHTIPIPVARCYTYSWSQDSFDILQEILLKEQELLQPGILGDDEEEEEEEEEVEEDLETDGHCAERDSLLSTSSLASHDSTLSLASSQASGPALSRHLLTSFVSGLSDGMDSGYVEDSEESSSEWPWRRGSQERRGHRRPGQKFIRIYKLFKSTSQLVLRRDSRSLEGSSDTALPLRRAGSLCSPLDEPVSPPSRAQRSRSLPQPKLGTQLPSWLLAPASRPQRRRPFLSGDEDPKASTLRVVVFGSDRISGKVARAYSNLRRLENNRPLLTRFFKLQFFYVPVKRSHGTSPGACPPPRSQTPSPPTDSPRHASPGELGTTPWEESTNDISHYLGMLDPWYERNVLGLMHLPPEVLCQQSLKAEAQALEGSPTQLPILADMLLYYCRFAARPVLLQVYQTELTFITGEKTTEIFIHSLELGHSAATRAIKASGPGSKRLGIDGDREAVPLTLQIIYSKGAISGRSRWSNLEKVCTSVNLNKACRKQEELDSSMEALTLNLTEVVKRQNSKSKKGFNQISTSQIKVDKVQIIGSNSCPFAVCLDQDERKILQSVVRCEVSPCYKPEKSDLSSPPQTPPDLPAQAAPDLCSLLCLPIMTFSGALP

| SMILES | IC50 (PI3Kγ) | IC50 (PI3Kβ) | IC50 (PI3Kδ) |
| --- | --- | --- | --- |
| NC(=O)c1cccc(-n2c([C@@H](Nc3nc(N)nc(N)c3Cl)C3CC3)nc3cccc(Cl)c3c2=O)c1 [Compound 10, (S)-3-(5-chloro-2-(cyclopropyl((2,6-diamino-5-chloropyrimidin-4-yl)amino)methyl)-4-oxoquinazolin-3(4H)-yl)benzamide] | 2700 nM | 7 nM | 1 nM |
| C[C@H](Nc1ncnc(N)c1C#Cc1ccccn1)c1nc2cccc(Cl)c2c(=O)n1-c1cccc(C(N)=O)c1 [Compound 38, (S)-3-(2-(1-((6-amino-5-(pyridin-2-ylethynyl)pyrimidin-4-yl)amino)ethyl)-5-chloro-4-oxoquinazolin-3(4H)-yl)benzamide] | 1500 nM | 52 nM | 1 nM |
| CCNC(=O)Nc1ccc(C)c(-n2c([C@H](C)Nc3ncnc(N)c3C#N)nc3cccc(Cl)c3c2=O)c1 (atropisomer, axis not shown) [Compound 61, (S)-1-(3-(2-(1-((6-amino-5-cyanopyrimidin-4-yl)amino)ethyl)-5-chloro-4-oxoquinazolin-3(4H)-yl)-4-methylphenyl)-3-ethylurea] | 2500 nM | 1130 nM | 8 nM |
| CCNC(=O)Nc1cccc(-n2c([C@H](C)Nc3ncnc(N)c3C#N)nc3c(F)ccc(F)c3c2=O)c1 [Compound 50, (S)-1-(3-(2-(1-((6-amino-5-cyanopyrimidin-4-yl)amino)ethyl)-5,8-difluoro-4-oxoquinazolin-3(4H)-yl)phenyl)-3-ethylurea] | > 10000 nM | 84 nM | 22 nM |
| CCC[C@H](Nc1nc(N)nc(N)c1Cl)c1nc2c(Cl)ccc(Cl)c2c(=O)n1-c1cccc(C(N)=O)c1 [Compound 21, (S)-3-(5,8-dichloro-2-(1-((2,6-diamino-5-chloropyrimidin-4-yl)amino)butyl)-4-oxoquinazolin-3(4H)-yl)benzamide] | > 10000 nM | 196 nM | 19 nM |
| C[C@H](Nc1ncnc(N)c1C#N)c1nc2c(F)cccc2c(=O)n1-c1cccc(NC(=O)NCCCO)c1 [Compound 68, (S)-1-(3-(2-(1-((6-amino-5-cyanopyrimidin-4-yl)amino)ethyl)-8-fluoro-4-oxoquinazolin-3(4H)-yl)phenyl)-3-(3-hydroxypropyl)urea] | > 10000 nM | 220 nM | 130 nM |
| CC[C@H](Nc1nc(N)nc(N)c1C#N)c1nc2cccc(C(F)F)c2c(=O)n1-c1cccc(C(N)=O)c1 [Compound 33, (S)-3-(2-(1-((2,6-diamino-5-cyanopyrimidin-4-yl)amino)propyl)-5-(difluoromethyl)-4-oxoquinazolin-3(4H)-yl)benzamide] | 380 nM | 4 nM | 0.8 nM |
| C[C@H](Nc1ncnc(N)c1C#N)c1nc2c(F)ccc(F)c2c(=O)n1-c1cccc(NC(=O)NCCCO)c1 [Compound 67, (S)-1-(3-(2-(1-((6-amino-5-cyanopyrimidin-4-yl)amino)ethyl)-5,8-difluoro-4-oxoquinazolin-3(4H)-yl)phenyl)-3-(3-hydroxypropyl)urea] | > 10000 nM | 38 nM | 98 nM |
| CCNC(=O)Nc1cccc(-n2c([C@H](C)Nc3ncnc(N)c3C#N)nc3cccc(Br)c3c2=O)c1 [Compound 45, (S)-1-(3-(2-(1-((6-amino-5-cyanopyrimidin-4-yl)amino)ethyl)-5-bromo-4-oxoquinazolin-3(4H)-yl)phenyl)-3-ethylurea] | 1800 nM | 6 nM | 2 nM |
| CC[C@H](Nc1nc(N)nc(N)c1C#N)c1nc2c(Cl)ccc(Cl)c2c(=O)n1-c1cccc(C(N)=O)c1 [Compound 18, (S)-3-(5,8-dichloro-2-(1-((2,6-diamino-5-cyanopyrimidin-4-yl)amino)propyl)-4-oxoquinazolin-3(4H)-yl)benzamide] | 1200 nM | 8 nM | 0.5 nM |

Results, then the compound that gave them:

| IC50 (PI3Kγ) | IC50 (PI3Kβ) | IC50 (PI3Kδ) | SMILES |
| --- | --- | --- | --- |
| 2300 nM | 16 nM | 12 nM | C[C@H](Oc1ncnc2scnc12)c1nc2cccc(Cl)c2c(=O)n1-c1cccc(NC(=O)NC2(C(F)(F)F)CC2)c1 [Compound 147, (S)-1-(3-(5-chloro-4-oxo-2-(1-(thiazolo[5,4-d]pyrimidin-7-yloxy)ethyl)quinazolin-3(4H)-yl)phenyl)-3-(1-(trifluoromethyl)cyclopropyl)urea] |
| 2500 nM | 5 nM | 13 nM | C[C@H](Nc1ncnc(N)c1C#N)c1nc2cccc(Cl)c2c(=O)n1-c1cccc(NC(=O)Nc2ccccc2C(F)(F)F)c1 [Compound 101, (S)-1-(3-(2-(1-((6-amino-5-cyanopyrimidin-4-yl)amino)ethyl)-5-chloro-4-oxoquinazolin-3(4H)-yl)phenyl)-3-(2-(trifluoromethyl)phenyl)urea] |
| 7600 nM | 33 nM | 12 nM | C[C@H](Nc1ncnc(N)c1C#N)c1nc2cccc(Cl)c2c(=O)n1-c1cccc(NC(=O)NCCC(=O)O)c1 [Compound 137, (S)-3-(3-(3-(2-(1-((6-amino-5-cyanopyrimidin-4-yl)amino)ethyl)-5-chloro-4-oxoquinazolin-3(4H)-yl)phenyl)ureido)propanoic acid] |
| 1300 nM | 20 nM | 4 nM | CCNC(=O)Nc1cccc(-n2c([C@H](C)Oc3ncnc4scnc34)nc3cccc(Cl)c3c2=O)c1 [Compound 151, (S)-1-(3-(5-chloro-4-oxo-2-(1-(thiazolo[5,4-d]pyrimidin-7-yloxy)ethyl)quinazolin-3(4H)-yl)phenyl)-3-ethylurea] |
| 1500 nM | 16 nM | 6 nM | Cc1ccccc1NC(=O)Nc1cccc(-n2c([C@H](C)Nc3ncnc(N)c3C#N)nc3cccc(Cl)c3c2=O)c1 [Compound 107, (S)-1-(3-(2-(1-((6-amino-5-cyanopyrimidin-4-yl)amino)ethyl)-5-chloro-4-oxoquinazolin-3(4H)-yl)phenyl)-3-(o-tolyl)urea] |
| 3700 nM | 70 nM | 110 nM | CCNC(=O)Nc1cccc(-n2c([C@H](C)Nc3nc(C)nc(N)n3)nc3cccc(Cl)c3c2=O)c1 [Compound 93, (S)-1-(3-(2-(1-((4-amino-6-methyl-1,3,5-triazin-2-yl)amino)ethyl)-5-chloro-4-oxoquinazolin-3(4H)-yl)phenyl)-3-ethylurea] |
| 840 nM | 47 nM | 5 nM | C[C@H](Oc1ncnc2scnc12)c1nc2cccc(Cl)c2c(=O)n1-c1cccc(NC(=O)Nc2cc(C(F)(F)F)no2)c1 [Compound 150, (S)-1-(3-(5-chloro-4-oxo-2-(1-(thiazolo[5,4-d]pyrimidin-7-yloxy)ethyl)quinazolin-3(4H)-yl)phenyl)-3-(3-(trifluoromethyl)isoxazol-5-yl)urea] |
| 1600 nM | 16 nM | 1 nM | CCNC(=O)Nc1cccc(-n2c([C@H](C)Nc3ncnc(N)c3C#Cc3ccccn3)nc3cccc(Cl)c3c2=O)c1 [Compound 92] |
| 6000 nM | 5 nM | 10 nM | COCCCNC(=O)Nc1cccc(-n2c([C@H](C)Nc3ncnc(N)c3C#N)nc3cccc(Cl)c3c2=O)c1 [Compound 134, (S)-1-(3-(2-(1-((6-amino-5-cyanopyrimidin-4-yl)amino)ethyl)-5-chloro-4-oxoquinazolin-3(4H)-yl)phenyl)-3-(3-methoxypropyl)urea] |
